Laboratory results from ChEMBL document CHEMBL5614438, “CETZOLE Analogs as Potent Ferroptosis Inducers and Their Target Identification Using Covalent/Affinity Probes” (J Med Chem, 2024).
Calls of active or inactive are those of the source. No cut-off for these calls is given here.

Tests used:
[1] = system: MDA-MB-231; assay: Cytotoxicity against human MDA-MB-231 cells assessed as reduction in cell viability incubated for 3 days by methylene blue staining based spectrophotometric analysis; assay type: functional; conditions: MDA-MB-231, 72 h, time 3 day
[2] = system: HT-1080; assay: Cytotoxicity against human HT-1080 cells assessed as reduction in cell viability incubated for 3 days by methylene blue staining based spectrophotometric analysis; assay type: functional; conditions: HT-1080, 72 h, time 3 day
[3] = system: NCI-H522; assay: Cytotoxicity against human NCI-H522 cells assessed as reduction in cell viability incubated for 3 days by methylene blue staining based spectrophotometric analysis; assay type: functional; conditions: NCI-H522, 72 h, time 3 day
[4] = system: NCI-H522; assay: Induction of ferroptosis in human NCI-H522 cells assessed as increase in intracellular lipid peroxidation accumulation at 0.39 uM incubated for 6 hrs by C11 BODIPY 581/591 staining based flow cytometry; assay type: functional, cell-based
[5] = system: HT-1080; assay: Cytotoxicity against human HT-1080 cells assessed as reduction in cell viability at 1 uM incubated for 3 days by methylene blue staining based spectrophotometric analysis; assay type: functional; conditions: time 3.0 day
[6] = system: NCI-H522; assay: Cytotoxicity against human NCI-H522 cells overexpressing GFP-tagged SLC7A11 assessed as reduction in cell viability incubated for 3 days by methylene blue staining based spectrophotometric analysis; assay type: functional; conditions: NCI-H522, 72 h, time 3 day
[7] = system: MEF; assay: Cytotoxicity against mouse MEF cells assessed as reduction in cell viability at 1 uM incubated for 3 days by methylene blue staining based spectrophotometric analysis; assay type: toxicity; conditions: 72 h, time 3 day
[8] = system: WI-38; assay: Cytotoxicity against human WI-38 cells assessed as reduction in cell viability at 1 uM incubated for 3 days by methylene blue staining based spectrophotometric analysis; assay type: toxicity; conditions: wi-38, 72 h, time 3 day
[9] = system: NCI-H522; assay: Induction of ferroptosis in human NCI-H522 cells assessed as cell death at 0.39 uM incubated for 3 days by methylene blue staining based spectrophotometric analysis relative to control; assay type: functional; conditions: time 3 day
[10] = system: NCI-H522; assay: Cytotoxicity against human NCI-H522 cells assessed as reduction in cell viability at 1 uM incubated for 3 days by methylene blue staining based spectrophotometric analysis; assay type: functional; conditions: time 3.0 day
[11] = system: NCI-H522; assay: Cytotoxicity against human NCI-H522 cells overexpressing GFP-tagged RV assessed as reduction in cell viability incubated for 3 days by methylene blue staining based spectrophotometric analysis; assay type: functional; conditions: NCI-H522, 72 h, time 3 day
[12] = system: U2OS; assay: Cytotoxicity against human U2OS cells assessed as reduction in cell viability incubated for 3 days by methylene blue staining based spectrophotometric analysis; assay type: functional; conditions: 72 h, time 3 day
[13] = system: NCI-H522; assay: Induction of ferroptosis in human NCI-H522 cells assessed as reduction in cell viability at 13.68 uM incubated for 3 days in presence of liproxstatin-1 by methylene blue staining based spectrophotometric analysis; assay type: functional; conditions: time 3.0 day
[14] = system: NCI-H522; assay: Induction of ferroptosis in human NCI-H522 cells assessed as increase in intracellular lipid peroxidation accumulation at 0.36 uM incubated for 6 hrs by C11 BODIPY 581/591 staining based flow cytometry; assay type: functional, cell-based
[15] = molecular target: Glucose-6-phosphate 1-dehydrogenase (Homo sapiens) (UniProt P11413); assay: Inhibition of G6PD in human HCT-116 cells using G6P as substrate at 100 uM incubated for 20 mins followed by G6P and […]; assay type: cell-based
Chain of Glucose-6-phosphate 1-dehydrogenase (Homo sapiens) (P11413 whole entry): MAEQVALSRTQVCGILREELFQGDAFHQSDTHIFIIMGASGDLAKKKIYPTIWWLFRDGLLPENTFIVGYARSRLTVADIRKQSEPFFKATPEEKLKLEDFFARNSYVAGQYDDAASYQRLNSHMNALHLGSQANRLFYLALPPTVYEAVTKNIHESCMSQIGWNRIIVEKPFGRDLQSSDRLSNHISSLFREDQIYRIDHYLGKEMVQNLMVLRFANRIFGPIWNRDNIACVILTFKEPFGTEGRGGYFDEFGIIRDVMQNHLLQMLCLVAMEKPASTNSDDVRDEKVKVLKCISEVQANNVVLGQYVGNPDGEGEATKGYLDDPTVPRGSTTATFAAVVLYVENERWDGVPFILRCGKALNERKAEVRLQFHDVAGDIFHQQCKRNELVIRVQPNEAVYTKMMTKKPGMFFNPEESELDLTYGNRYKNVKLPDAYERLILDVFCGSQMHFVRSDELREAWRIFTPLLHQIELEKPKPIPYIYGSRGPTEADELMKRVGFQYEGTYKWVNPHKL

[16] = system: NCI-H522; assay: Induction of ferroptosis in human NCI-H522 cells assessed as cell death at 0.38 uM incubated for 3 days by methylene blue staining based spectrophotometric analysis relative to control; assay type: functional; conditions: time 3 day
[17] = molecular target: Phospholipid hydroperoxide glutathione peroxidase GPX4 (Homo sapiens) (UniProt P36969); assay: Inhibition of recombinant GPX4 (unknown origin) at 100 uM incubated for 60 mins followed by NADPH addition
Chain of Phospholipid hydroperoxide glutathione peroxidase GPX4 (Homo sapiens) (P36969 whole entry): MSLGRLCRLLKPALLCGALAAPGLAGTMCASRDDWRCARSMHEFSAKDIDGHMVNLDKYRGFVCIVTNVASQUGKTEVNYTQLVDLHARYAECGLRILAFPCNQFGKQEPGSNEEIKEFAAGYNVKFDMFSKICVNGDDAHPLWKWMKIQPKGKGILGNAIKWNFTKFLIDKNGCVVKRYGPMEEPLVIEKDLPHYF

[18] = molecular target: T1, Peroxiredoxin-4 (Homo sapiens) (UniProt Q13162); assay: Inhibition of PRDX4 (unknown origin)
T1 sequence (whole entry): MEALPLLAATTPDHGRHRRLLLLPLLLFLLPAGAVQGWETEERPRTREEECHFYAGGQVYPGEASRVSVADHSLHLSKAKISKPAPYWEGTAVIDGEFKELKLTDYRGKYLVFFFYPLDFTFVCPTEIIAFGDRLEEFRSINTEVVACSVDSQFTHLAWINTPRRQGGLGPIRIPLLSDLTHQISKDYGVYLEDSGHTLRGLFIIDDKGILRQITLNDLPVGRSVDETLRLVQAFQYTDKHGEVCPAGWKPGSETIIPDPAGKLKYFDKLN

[19] = molecular target: Glucose-6-phosphate 1-dehydrogenase (Homo sapiens) (UniProt P11413); assay: Inhibition of G6PD in human HCT-116 cells using G6P as substrate assessed as reduction in enzyme activity by measuring absorbance at 100 uM incubated for 20 mins followed by G6P and […]; assay type: cell-based
[20] = system: NCI-H522; assay: Induction of ferroptosis in human NCI-H522 cells assessed as increase in intracellular lipid peroxidation accumulation at 7.68 uM incubated for 6 hrs by C11 BODIPY 581/591 staining based flow cytometry; assay type: functional, cell-based
[21] = system: NCI-H522; assay: Induction of cell death in human NCI-H522 cells at 10 uM incubated for 4 to 5 hrs by live cell imaging analysis; assay type: functional, cell-based; conditions: time 4-5 hrs
[22] = system: NCI-H522; assay: Induction of ferroptosis in human NCI-H522 cells assessed as reduction in cell viability at 7.68 uM incubated for 3 days in presence of liproxstatin-1 by methylene blue staining based spectrophotometric analysis; assay type: functional; conditions: time 3.0 day
[23] = system: NCI-H522; assay: Induction of cell death in human NCI-H522 cells at 10 uM incubated for 4 to 5 hrs by live cell imaging analysis relative to control; assay type: functional; conditions: time 4-5 hrs
[24] = molecular target: Glucose-6-phosphate 1-dehydrogenase (Homo sapiens) (UniProt P11413); assay: Inhibition of G6PD in human HCT-116 cells using G6P as substrate at 25 uM incubated for 20 mins followed by G6P and […]; assay type: cell-based
[25] = system: NCI-H522; assay: Induction of ferroptosis in human NCI-H522 cells assessed as increase in intracellular lipid peroxidation accumulation at 4.08 uM incubated for 6 hrs by C11 BODIPY 581/591 staining based flow cytometry; assay type: functional, cell-based
[26] = system: NCI-H522; assay: Induction of ferroptosis in human NCI-H522 cells assessed as cell viability incubated for 3 days in presence of liproxstatin-1 by methylene blue staining based spectrophotometric analysis relative to control; assay type: functional; conditions: time 3 day
[27] = system: NCI-H522; assay: Induction of cell death in human NCI-H522 cells at 10 uM incubated for 3 to 4 hrs by live cell imaging analysis relative to control; assay type: functional; conditions: time 3-4 hrs
[28] = system: MEF; assay: Cytotoxicity against mouse MEF cells assessed as reduction in cell viability incubated for 3 days by methylene blue staining based spectrophotometric analysis; assay type: toxicity; conditions: 72 h, time 3 day
[29] = system: WI-38; assay: Cytotoxicity against human WI-38 cells assessed as reduction in cell viability incubated for 3 days by methylene blue staining based spectrophotometric analysis; assay type: toxicity; conditions: wi-38, 72 h, time 3 day
[30] = system: NCI-H522; assay: Induction of ferroptosis in human NCI-H522 cells assessed as reduction in cell viability at 3.3 uM incubated for 3 days in presence of liproxstatin-1 by methylene blue staining based spectrophotometric analysis; assay type: functional; conditions: time 3.0 day

SMILES | CC50 [1] | CC50 [2] | CC50 [3] | CC50 [6] | CC50 [11] | CC50 [12] | further results
CC1=C(c2csc(Br)n2)C/C(=N\OCC(=O)Nc2ccc3oc(=O)c(C)cc3c2)C1=O | > 20 µM | > 20 µM | > 20 µM |  |  |  | 
C#Cc1nc(C2=C(C)C(OC(=O)CCC)/C(=N/OC(=O)CCC)C2)cs1 (stereo not drawn) | 0.83 µM | 0.19 µM | 0.13 µM | 1.93 µM | 0.28 µM | 5.85 µM | Activity [4]: Active; Activity [5]: Active; Activity [7]: Toxic; Activity [8]: Toxic; Activity [9]: ~60%; Activity [10]: Active
C#Cc1nc(C2=C(C)C(NC(=O)c3cc4ccc(N(CC)CC)cc4oc3=O)CC2)cs1 (stereo not drawn) | 1.2 µM | 4.58 µM | 4.56 µM |  |  |  | Activity [13]: inactive
CCN(CC)c1ccc2cc(C(=O)NC3CCC(c4csc(Br)n4)=C3C)c(=O)oc2c1 (stereo not drawn) | > 20 µM | > 20 µM | > 20 µM |  |  |  | 
C#Cc1nc(C2=C(C)C(=O)/C(=N/OC(C)=O)C2)cs1 | 18.5 µM | > 20 µM | 11 µM | > 20 µM | > 20 µM | > 20 µM | 
C#Cc1nc(C2=C(C)C(O)/C(=N/O)C2)cs1 (stereo not drawn) | 6.57 µM | 5.77 µM | 4.68 µM | > 20 µM | 5.55 µM | > 20 µM | 
C#Cc1nc(C2=C(C)C(OC(=O)C(c3ccccc3)c3ccccc3)/C(=N\OC(=O)C(c3ccccc3)c3ccccc3)C2)cs1 (stereo not drawn) | 14.9 µM | 1.85 µM | 3.5 µM | 9.34 µM | 5.02 µM | 9.1 µM | 
C#Cc1nc(C2=C(C)C(O)/C(=N\OCc3ccccc3)C2)cs1 (stereo not drawn) | 13.4 µM | 0.93 µM | 1.18 µM | 2.17 µM | 3.02 µM | > 20 µM | 
C#Cc1nc(C2=C(C)C(OC(=O)C(C)(C)C)/C(=N\OC(=O)C(C)(C)C)C2)cs1 (stereo not drawn) | 0.44 µM | 0.033 µM | 0.411 µM | 0.387 µM | 0.472 µM | 3.39 µM | 
C#Cc1nc(C2=C(C)C(=O)/C(=N/OCC(=O)Nc3ccc4oc(=O)c(C)cc4c3)C2)cs1 | > 20 µM | > 20 µM | > 20 µM |  |  |  | 
C#Cc1nc(C2=C(C)C(=O)NCC2)cs1 | 9.32 µM | 4.89 µM | 5.4 µM | 20.2 µM | 10.9 µM | 7.81 µM | 
C#Cc1nc(C2=C(C)C(OC(=O)CC)/C(=N/OC(=O)CC)C2)cs1 (stereo not drawn) | 0.18 µM | 0.15 µM | 0.12 µM | 2.06 µM | 0.59 µM | 13.4 µM | Activity [14]: Active; Activity [5]: Active; inhibition [15]: Active; Activity [7]: Toxic; Activity [8]: Toxic; Activity [16]: ~60%; Activity [10]: Active; inhibition [17]: Active; inhibition [18]: inactive; Activity [19]: 0.13
C#Cc1nc(C2=C(C)C(OC(=O)c3ccccc3)/C(=N\OC(=O)c3ccccc3)C2)cs1 (stereo not drawn) | 0.54 µM | 0.08 µM | 0.55 µM | 0.84 µM | 0.58 µM | 0.22 µM | 
C#Cc1nc(C2=C(C)C(=O)/C(=N/O)C2)cs1 | 8.05 µM | 5.29 µM | > 20 µM | > 20 µM | > 20 µM | > 20 µM | 
C#CCO/N=C1\CC(c2csc(Br)n2)=C(C)C1O (stereo not drawn) | > 20 µM | > 20 µM | > 20 µM |  |  |  | 
C#Cc1nc(C2=C(C)C(O)CC2)cs1 (racemic) | 6.28 µM | 3.07 µM |  | 10.3 µM |  | 14.9 µM | Activity [5]: inactive; inhibition [15]: Active; Activity [7]: Non-Toxic; Activity [8]: Non-Toxic; Activity [20]: Active; Activity [10]: inactive; inhibition [18]: inactive; Activity [21]: Active; Activity [22]: inactive; Activity [23]: 50%
COc1ccc(N(C(=O)CCl)C(C(=O)NCCc2ccccc2)c2cccs2)cc1Cl (stereo not drawn) |  |  |  |  |  |  | inhibition [18]: inactive; inhibition [24]: Active
C#Cc1nc(C2=C(C)/C(=N/OCc3ccccc3)CC2)cs1 | 4.17 µM | 0.81 µM | 1.36 µM | 2.41 µM | 2.54 µM | 19.3 µM | Activity [5]: Active; Activity [7]: Non-Toxic; Activity [8]: Non-Toxic; Activity [10]: Active; Activity [25]: Active; Activity [26]: 85%; Activity [21]: Active; Activity [23]: 50%
C#Cc1nc(C2=C(C)C(OC(=O)CCCCCCC)/C(=N/OC(=O)CCCCCCC)C2)cs1 (stereo not drawn) | 19.1 µM | > 20 µM | > 20 µM | > 20 µM | > 20 µM | > 20 µM | 
C#CCCC(=O)Nc1ccc(C(=O)c2ccc(NC(=O)CO/N=C3\CC(c4csc(Br)n4)=C(C)C3O)cc2)cc1 (stereo not drawn) | > 20 µM | > 20 µM | > 20 µM |  |  |  | 
CC1=C(c2csc(Br)n2)CCC1O (stereo not drawn) | > 20 µM | > 20 µM | > 20 µM |  |  |  | 
COC(=O)c1ccc([C@H]2c3[nH]c4ccccc4c3C[C@H](C(=O)OC)N2C(=O)CCl)cc1 | 0.22 µM | 0.14 µM | 1.1 µM | 2.84 µM | 0.31 µM | 2.46 µM | Activity [27]: 50%; CC50 [28]: 0.04 µM; Activity [5]: Active; Activity [7]: Toxic; Activity [8]: Toxic; CC50 [29]: 0.05 µM; Activity [10]: Active; Activity [30]: inactive
